Test results as given in US20250282799A1, “SUBSTITUTED PYRIDO[4,3-d]PYRIMIDINES AS KRAS MODULATORS” (Alterome Therapeutics, Inc., priority 2023, published 2025).

Test system: KRAS G12V dependent lung adenocarcinoma cell line, NCI-H441
Test: Cellular pERK (Thr202/Tyr204) FRET/HTRF assay
Type: cell-based
Details: Homo sapiens, NCI-H441, cellular pERK (Thr202/Tyr204) HTRF, NCI-H441 cells
Outline: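 NCI-H441 cells (KRAS G12V) plated overnight at 37 °C, then exposed to compounds for 1 hr at 37 °C, 5% CO2; DMSO as negative control. Lysates read by Eu-cryptate/d2 sandwich FRET (665 nm) for ERK1/2 phosphorylated at Thr202/Tyr204; IC50 from curve fit.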

[2H]C([2H])([2H])Oc1c(F)cc(F)c2cccc(-c3ncc4c(N5CCCC[C@H]6[C@H](F)[C@H]65)nc(OC([2H])([2H])[C@@]56CCCN5C[C@H](F)C6)nc4c3F)c12 [Example 140, 7-(5,7-difluoro-8-(methoxy-d3)naphthalen-1-yl)-8-fluoro-4-((1S,7R,8S)-8-fluoro-2-azabicyclo[5.1.0]octan-2-yl)-2-(((2R,7aS)-2-fluorotetrahydro-1H-pyrrolizin-7a(5H)-yl)methoxy-d2)pyrido[4,3-d]pyrimidine]
IC50: 50 to 500 nM

[2H]C([2H])([2H])Oc1c(F)cc(F)c2cc(N)cc(-c3ncc4c(N5CCCC[C@H]6[C@H](F)[C@H]65)nc(OC([2H])([2H])[C@@]56CCCN5C[C@H](F)C6)nc4c3F)c12 [Example 141, 6,8-difluoro-4-(8-fluoro-4-((1S,7R,8S)-8-fluoro-2-azabicyclo[5.1.0]octan-2-yl)-2-(((2R,7aS)-2-fluorotetrahydro-1H-pyrrolizin-7a(5H)-yl)methoxy-d2)pyrido[4,3-d]pyrimidin-7-yl)-5-(methoxy-d3)naphthalen-2-amine]
IC50: < 50 nM

[2H]C([2H])([2H])Oc1c(F)c(F)c(F)c2cc(N)cc(-c3ncc4c(N5CCOC[C@H]6[C@H](F)[C@H]65)nc(OC[C@@]56CCCN5CC(=C(F)F)C6)nc4c3F)c12 [Example 142, 4-(2-(((S)-2-(difluoromethylene)tetrahydro-1H-pyrrolizin-7a(5H)-yl)methoxy)-8-fluoro-4-((1S,7S,8S)-8-fluoro-5-oxa-2-azabicyclo[5.1.0]octan-2-yl)pyrido[4,3-d]pyrimidin-7-yl)-6,7,8-trifluoro-5-(methoxy-d3)naphthalen-2-amine]
IC50: < 50 nM

C#Cc1c(F)ccc2cccc(-c3ncc4c(N5CCOC[C@H]6[C@H](F)[C@H]65)nc(OC[C@@]56CCCN5CC(=C)C6)nc4c3F)c12 [Example 143, (1S,7S,8S)-2-(7-(8-ethynyl-7-fluoronaphthalen-1-yl)-8-fluoro-2-(((S)-2-methylenetetrahydro-1H-pyrrolizin-7a(5H)-yl)methoxy)pyrido[4,3-d]pyrimidin-4-yl)-8-fluoro-5-oxa-2-azabicyclo[5.1.0]octane]
IC50: < 50 nM

[2H]C([2H])(F)Oc1c(F)c(F)cc2cc(N)cc(-c3ncc4c(N5CCOC[C@H]6[C@H](F)[C@H]65)nc(OC[C@@]56CCCN5CC(=C)C6)nc4c3F)c12 [Example 144, 6,7-difluoro-4-(8-fluoro-4-((1S,7S,8S)-8-fluoro-5-oxa-2-azabicyclo[5.1.0]octan-2-yl)-2-(((S)-2-methylenetetrahydro-1H-pyrrolizin-7a(5H)-yl)methoxy)pyrido[4,3-d]pyrimidin-7-yl)-5-(fluoromethoxy-d2)naphthalen-2-amine]
IC50: < 50 nM

[2H]C([2H])(F)Oc1c(F)ccc2cccc(-c3ncc4c(N5CCOC[C@H]6[C@H](F)[C@H]65)nc(OC[C@@]56CCCN5CC(=C)C6)nc4c3F)c12 [Example 145, (1S,7S,8S)-8-fluoro-2-(8-fluoro-7-(7-fluoro-8-(fluoromethoxy-d2)naphthalen-1-yl)-2-(((S)-2-methylenetetrahydro-1H-pyrrolizin-7a(5H)-yl)methoxy)pyrido[4,3-d]pyrimidin-4-yl)-5-oxa-2-azabicyclo[5.1.0]octane]
IC50: < 50 nM

[2H]C([2H])(F)Oc1c(F)ccc2cccc(-c3ncc4c(N5CCOC[C@H]6[C@H](F)[C@H]65)nc(OC[C@@]56CCCN5CC(=C(F)F)C6)nc4c3F)c12 [Example 146, (1S,7S,8S)-2-(2-(((S)-2-(difluoromethylene)tetrahydro-1H-pyrrolizin-7a(5H)-yl)methoxy)-8-fluoro-7-(7-fluoro-8-(fluoromethoxy-d2)naphthalen-1-yl)pyrido[4,3-d]pyrimidin-4-yl)-8-fluoro-5-oxa-2-azabicyclo[5.1.0]octane]
IC50: < 50 nM
